System: iNOS protein levels in RAW264.7 macrophages
Assay: Western blot analysis of iNOS expression in LPS-stimulated macrophages
Format: cell-based, murine
Details: for iNOS expression level: normalized against LPS condition
Procedure: To investigate the underlying mechanism of action of the most promising brominated chalcones (1 and 2), their effects on iNOS protein levels were assessed in LPS-stimulated macrophages at different time points (4, 6, and 24 h). The non-treated (NT) condition, consisting of macrophages stimulated with LPS but receiving no chalcone treatment, was used as the reference for maximal iNOS induction under inflammatory conditions and served as a positive control. The selected concentrations (7.5 μM and 15 μM) were selected based on chalcones 1 and 2 cytocompatibility (Figure 3) and efficacy in reducing NO production (Figure 4). Since NO production is a direct consequence of iNOS enzymatic activity, where the enzyme catalyzes the conversion of L-arginine to NO following inflammatory stimulation such as LPS, this provides a functional readout of iNOS expression and activity.
Here, we focused on validating iNOS expression at the protein level by western blot (Figure 6). While gene-level expression was not assessed, it is well established that LPS stimulation induces both iNOS transcription and translation in RAW 264.7 macrophages. Moreover, changes observed at the protein level are often closely associated with upstream transcriptional or translational modulation. Therefore, quantifying iNOS protein levels provides a biologically relevant measure of the chalcones’ inhibitory effects on this key inflammatory mediator.
The expression of the iNOS enzyme was analyzed by western blot. RAW264.7 macrophages were seeded at a density of 1 × 10^6 cells/well in a 6-well plate and incubated for 24 h at 37 °C in a humidified atmosphere containing 5% CO2. After incubation, cells were treated with 7.5 µM or 15 µM of the most promising chalcones (1 and 2) for 30 min, followed by the addition of LPS to have a final concentration of 100 ng/mL. Cells were then incubated for 4, 6, or 24 h. At each time point, cells were washed with PBS and lysed in RIPA buffer. The lysates were collected in Eppendorf tubes and kept on ice, with intermittent vortexing to ensure thorough lysis. Samples were centrifuged at 18,000× g for 16 min at 4 °C, and the supernatant was collected. Total protein concentration was determined using the Pierce™ BCA Protein Assay Kit (Thermo Scientific, 23225, Waltham, MA, USA), following the manufacturer’s instructions. Equal amounts of protein (25 µg) were loaded onto Bolt™ 8% Bis-Tris Mini Protein Gels (Invitrogen™, NW00087BOX, Waltham, MA, USA) and separated via electrophoresis. Proteins were then transferred onto nitrocellulose membranes (Invitrogen™, IB24002) using the iBlot® 2 dry transfer system (Invitrogen™, Waltham, MA, USA). After transfer, membranes were sectioned to separate the iNOS bands from those of the housekeeping protein GAPDH. Membranes were blocked for 1 h at room temperature in TBS-T containing 5% BSA and subsequently incubated overnight at 4 °C with primary antibodies against iNOS (Cell Signaling Technology, 16713120S, Danvers, MA, USA) or GAPDH (Abcam, ab181602, Cambridge, UK), diluted in TBS-T with 1% BSA. On the following day, membranes were washed three times with TBS-T and incubated for 1 h at room temperature with an HRP-conjugated secondary antibody (Cell Signaling Technology, 7074S) diluted in TBS-T with 1% BSA. After three additional washes, signal detection was performed using Clarity™ Western ECL Substrate (Bio-Rad, 1705061, Hercules, CA, USA), and chemiluminescent signals were acquired using the Odyssey FC imaging system (LI-COR, Lincoln, NE, USA). Densitometric analysis of iNOS bands was performed using Image Studio™ Software (version 5.2, LI-COR, Lincoln, NE, USA), with values normalized to the corresponding GAPDH bands.
Figure 6 iNOS expression level after treatment of 4, 6, and 24 h with chalcones 1 and 2 in macrophage cell line. Results are expressed as volume arbitrary unit (A). […]

COc1cc(Br)c(/C=C/C(=O)c2cc(OC)c(OC)cc2Br)cc1OC [Chalcone 1]
iNOS expression level (7.5 µM, 4 h): 84.7% | iNOS expression level (7.5 µM, 24 h): 14.3% | iNOS expression level (15 µM, 4 h): 28.3% | iNOS expression level (15 µM, 6 h): 13.5% | iNOS expression level (15 µM, 24 h): 16.7% | maximum reduction of iNOS expression (regardless of concentration (7.5 µM at 24 h, 15 µM at 6 h)): approximately 85%

— paper PMC12299847, “Macroalgae-Inspired Brominated Chalcones as Cosmetic Ingredients with the Potential to Target Skin Inflammaging” (Marine Drugs, 2025)
